pIC50: −log10 of the molar value. Where only a bound is given, the exact number is not on record here.

Holding throughout (assay type): biochemical
One test concerns the target T1, Pim-1 (Homo sapiens, UniProt P11309).
T1 construct: His6-labelled recombinant full-length human Pim-1, Pim-2 or Pim-3 protein; His6; made in house
In words: TR-FRET assay, Pim-1 kinase (phosphorylation of Bad Ser112). As to conditions: TR-FRET; ATP 40 μM; read-out: IC50 Pim1. The method in brief: (§1)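 Recombinant His6-tagged full-length human Pim-1, Pim-2 or Pim-3 phosphorylates His6-tagged full-length human Bad at 40 μM ATP (apparent KM). Phospho-Ser112 is detected by TR-FRET between Eu-labelled anti-phosphoBad and APC-labelled anti-His6 (665/615 nm ratio); 10-point duplicate series, top typically 30 μM, IC50 from 4-parameter logistic fit.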
Background: TR-FRET usually uses a lanthanide donor and a delayed reading to cut background.

Another test addresses T2, Pim-2 (Homo sapiens, UniProt Q9P1W9).
T2 construct: His6-labelled recombinant full-length human Pim-1, Pim-2 or Pim-3 protein; His6; made in house
In words: TR-FRET assay, Pim-2 kinase (phosphorylation of Bad Ser112). To be noted: TR-FRET; ATP 40 μM; read-out: IC50 Pim2. The method in brief: as §1

The target in another test is T3, Pim-3 (Homo sapiens, UniProt Q86V86).
T3 construct: His6-labelled recombinant full-length human Pim-1, Pim-2 or Pim-3 protein; His6; made in house
In words: TR-FRET assay, Pim-3 kinase (phosphorylation of Bad Ser112). As to conditions: TR-FRET; ATP 40 μM; read-out: IC50 Pim3. The method in brief:
as §1

T2 sequence (Q9P1W9 whole entry): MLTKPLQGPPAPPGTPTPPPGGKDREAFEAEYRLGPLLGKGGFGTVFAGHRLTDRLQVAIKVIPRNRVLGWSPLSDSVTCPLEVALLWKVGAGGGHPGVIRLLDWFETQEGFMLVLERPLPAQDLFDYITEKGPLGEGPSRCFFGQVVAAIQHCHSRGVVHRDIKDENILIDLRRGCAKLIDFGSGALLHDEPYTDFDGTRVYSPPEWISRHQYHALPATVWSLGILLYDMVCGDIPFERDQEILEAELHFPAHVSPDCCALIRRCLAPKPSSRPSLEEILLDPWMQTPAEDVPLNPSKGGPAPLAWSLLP
T1 sequence (P11309 whole entry): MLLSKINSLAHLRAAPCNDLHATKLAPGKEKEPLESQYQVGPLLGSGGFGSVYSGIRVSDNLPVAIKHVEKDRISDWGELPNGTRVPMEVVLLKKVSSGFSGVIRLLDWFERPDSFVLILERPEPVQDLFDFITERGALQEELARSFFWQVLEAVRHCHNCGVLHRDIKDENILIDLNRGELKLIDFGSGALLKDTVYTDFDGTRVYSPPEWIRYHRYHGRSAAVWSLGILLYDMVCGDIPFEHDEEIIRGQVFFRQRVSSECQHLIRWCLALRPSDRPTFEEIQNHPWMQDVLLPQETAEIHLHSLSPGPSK

Consider `CN1CCN(c2cnc3[nH]c4cnc(-c5cccnc5)cc4c3c2)CC1` [Example 106, 3-(4-methylpiperazin-1-yl)-6-(pyrid-3-yl)-9H-pyrrolo[2,3-b:5,4-c′]dipyridine], for which the negative logarithm of the IC50 (pIC50) on Pim-1 was 7.00 to 9.00; on Pim-2, less than 5.30; on Pim-3, 7.00 to 9.00.

Consider `c1cncc(-c2cc3c(cn2)[nH]c2ncc(N4CCNCC4)cc23)c1` [Example 108, 3-(piperazin-1-yl)-6-(pyrid-3-yl)-9H-pyrrolo[2,3-b:5,4-c′]-dipyridine], for which the negative logarithm of the IC50 (pIC50) at Pim-1 is 7.00 to 9.00; at Pim-2, less than 5.30; at Pim-3, 7.00 to 9.00.

As to `Nc1cnc2[nH]c3cnc(-c4cccnc4)cc3c2c1` [Example 109, 6-(pyrid-3-yl)-9H-pyrrolo[2,3-b:5,4-c′]dipyrid-3-amine], the pIC50 at Pim-1 is 7.00 to 9.00; on Pim-2, less than 5.30; at Pim-3 it was 6.00 to 7.00.

For `FC(F)(F)COc1cnc2[nH]c3cnc(-c4cccnc4)cc3c2c1` [Example 111, 6-(pyrid-3-yl)-3-(2,2,2-trifluoroethoxy)-9H-pyrrolo[2,3-b:5,4-c′]dipyridine], the negative logarithm of the IC50 (pIC50) is 7.00 to 9.00 on Pim-1, 5.30 to 6.00 at Pim-2 and 6.00 to 7.00 on Pim-3.

Regarding `Ic1cnc2[nH]c3cnc(-c4cccnc4)cc3c2c1` [Example 114, 3-iodo-6-(pyrid-3-yl)-9H-pyrrolo[2,3-b:5,4-c′]dipyridine], the pIC50 on Pim-1 was 6.00 to 7.00; at Pim-2, 5.30 to 6.00; at Pim-3, 6.00 to 7.00.

For `CC(C)Cn1cc(-c2cnc3[nH]c4cnc(-c5cccnc5)cc4c3c2)cn1` [Example 117, 3-[1-(2-methyl-propyl)-1H-pyrazol-4-yl]-6-(pyrid-3-yl)-9H-pyrrolo[2,3-b:5,4-c′]dipyridine], the pIC50 is 7.00 to 9.00 at Pim-1, 5.30 to 6.00 at Pim-2 and 7.00 to 9.00 on Pim-3.

On to `c1cncc(-c2cc3c(cn2)[nH]c2ncc(-c4cccc(N5CCNCC5)c4)cc23)c1` [Example 132, 3-[3-(piperazin-1-yl)phenyl]-6-(pyrid-3-yl)-9H-pyrrolo[2,3-b:5,4-c′]dipyridine], for which the values for the pIC50 on Pim-1, at Pim-2 and on Pim-3 were 7.00 to 9.00, 6.00 to 7.00 and 7.00 to 9.00, respectively.

Turning to `CN(C)CC(=O)N1CCN(c2cccc(-c3cnc4[nH]c5cnc(-c6cccnc6)cc5c4c3)c2)CC1` [Example 134, 2-(dimethylamino)-1-(4-{3-[6-(pyrid-3-yl)-9H-pyrrolo[2,3-b:5,4-c′]dipyrid-3-yl]-phenyl}piperazin-1-yl)ethanone], the pIC50 at Pim-1 was 7.00 to 9.00; at Pim-2, less than 5.30; on Pim-3, 7.00 to 9.00.

`CN(C)CC(=O)N1CCN(c2ccc(-c3cnc4[nH]c5cnc(-c6cccnc6)cc5c4c3)cc2)CC1` [Example 135, 2-(dimethylamino)-1-(4-{4-[6-(pyrid-3-yl)-9H-pyrrolo[2,3-b:5,4-c′]dipyrid-3-yl]-phenyl}piperazin-1-yl)ethanone]: the values for the pIC50 on Pim-1, on Pim-2 and at Pim-3 were 7.00 to 9.00, 6.00 to 7.00 and 7.00 to 9.00, respectively.

As for `CC(=O)N1CCN(c2cccc(-c3cnc4[nH]c5cnc(-c6cccnc6)cc5c4c3)c2)CC1` [Example 136, 1-(4-{3-[6-(pyrid-3-yl)-9H-pyrrolo[2,3-b:5,4-c′]dipyrid-3-yl]phenyl}piperazin-1-yl)-ethanone], the pIC50 at Pim-1 was 7.00 to 9.00; at Pim-2, less than 5.30; on Pim-3 it was 7.00 to 9.00.

On to `CC(=O)N1CCN(c2ccc(-c3cnc4[nH]c5cnc(-c6cccnc6)cc5c4c3)cc2)CC1` [Example 137, 1-(4-{4-[6-(pyrid-3-yl)-9H-pyrrolo[2,3-b:5,4-c′]dipyrid-3-yl]phenyl}piperazin-1-yl)-ethanone], for which the negative-log IC50 (pIC50) is 7.00 to 9.00 on Pim-1, 6.00 to 7.00 at Pim-2 and 7.00 to 9.00 at Pim-3.

On to `CN1CCN(c2ccc(-c3cnc4[nH]c5cnc(-c6cccnc6)cc5c4c3)cc2)CC1` [Example 138, 3-[4-(4-methylpiperazin-1-yl)phenyl]-6-(pyrid-3-yl)-9H-pyrrolo[2,3-b:5,4-c′]dipyridine], for which the pIC50 at Pim-1 is 7.00 to 9.00; at Pim-2, 6.00 to 7.00; on Pim-3 it was 7.00 to 9.00.

For the molecule `CN1CCN(c2cccc(-c3cnc4[nH]c5cnc(-c6cccnc6)cc5c4c3)c2)CC1` [Example 139, 3-[3-(4-methylpiperazin-1-yl)phenyl]-6-(pyrid-3-yl)-9H-pyrrolo[2,3-b:5,4-c′]dipyridine], the figures for the pIC50 at Pim-1, on Pim-2 and at Pim-3 were 7.00 to 9.00, 5.30 to 6.00 and 7.00 to 9.00, respectively.

Consider `c1cncc(-c2cc3c(cn2)[nH]c2ncc(-c4ccc(N5CCN(C6CC6)CC5)cc4)cc23)c1` [Example 141, 3-[4-(4-cyclopropylpiperazin-1-yl)phenyl]-6-(pyrid-3-yl)-9H-pyrrolo[2,3-b:5,4-c′]-dipyridine], for which the negative logarithm of the IC50 (pIC50) at Pim-1 was 7.00 to 9.00; at Pim-2, 5.30 to 6.00; at Pim-3 it was 7.00 to 9.00.

`c1cncc(-c2cc3c(cn2)[nH]c2ncc(-c4cccc(N5CCN(C6CC6)CC5)c4)cc23)c1` [Example 142, 3-[3-(4-cyclopropylpiperazin-1-yl)phenyl]-6-(pyrid-3-yl)-9H-pyrrolo[2,3-b:5,4-c′]-dipyridine]: the negative-log IC50 (pIC50) on Pim-1 was 7.00 to 9.00; on Pim-2, less than 5.30; on Pim-3, 7.00 to 9.00.

Take `c1cncc(-c2cc3c(cn2)[nH]c2ncc(-c4ccnc(N5CCNCC5)c4)cc23)c1` [Example 144, 3-[2-(piperazin-1-yl)pyrid-4-yl]-6-(pyrid-3-yl)-9H-pyrrolo[2,3-b:5,4-c′]dipyridine]: the results for the negative-log IC50 (pIC50) on Pim-1, at Pim-2 and at Pim-3 were 7.00 to 9.00, less than 5.30 and 7.00 to 9.00, respectively.

Consider `CN(C)CCCOc1ccc(-c2cnc3[nH]c4cnc(-c5cccnc5)cc4c3c2)cn1` [Example 145, N,N-dimethyl-3-({5-[6-(pyrid-3-yl)-9H-pyrrolo[2,3-b:5,4-c′]dipyrid-3-yl]pyrid-2-yl}-oxy)propan-1-amine], for which the values for the pIC50 at Pim-1, on Pim-2 and on Pim-3 were 7.00 to 9.00, 6.00 to 7.00 and 7.00 to 9.00, respectively.

As for `CN(C)CCCOc1ccc(-c2cnc3[nH]c4cnc(-c5cccnc5)cc4c3c2)cc1` [Example 146, N,N-dimethyl-3-{4-[6-(pyrid-3-yl)-9H-pyrrolo[2,3-b:5,4-c′]dipyrid-3-yl]phenoxy}-propan-1-amine], the negative logarithm of the IC50 (pIC50) on Pim-1 was 7.00 to 9.00; at Pim-2, 6.00 to 7.00; on Pim-3, 7.00 to 9.00.

As to `c1cncc(-c2cc3c(cn2)[nH]c2ncc(-c4ccc(OCCCN5CCCCC5)cc4)cc23)c1` [Example 147, 3-{4-[3-(piperid-1-yl)propoxy]phenyl}-6-(pyrid-3-yl)-9H-pyrrolo[2,3-b:5,4-c′]-dipyridine], the negative-log IC50 (pIC50) on Pim-1 is 7.00 to 9.00; at Pim-2, 6.00 to 7.00; at Pim-3, 7.00 to 9.00.

`c1cncc(-c2cc3c(cn2)[nH]c2ncc(-c4ccc(OCCN5CCOCC5)cc4)cc23)c1` [Example 148, 3-{4-[2-(morpholin-4-yl)ethoxy]phenyl}-6-(pyrid-3-yl)-9H-pyrrolo[2,3-b:5,4-c′]-dipyridine]: the results for the pIC50 on Pim-1, on Pim-2 and at Pim-3 were 7.00 to 9.00, 6.00 to 7.00 and 7.00 to 9.00, respectively.

On to `c1cncc(-c2cc3c(cn2)[nH]c2ncc(-c4ccc(OCCCN5CCOCC5)cc4)cc23)c1` [Example 149, 3-{4-[3-(morpholin-4-yl)propoxy]phenyl}-6-(pyrid-3-yl)-9H-pyrrolo[2,3-b:5,4-c′]-dipyridine], for which the results for the pIC50 on Pim-1, at Pim-2 and on Pim-3 were 7.00 to 9.00, 6.00 to 7.00 and 7.00 to 9.00, respectively.

`c1cncc(-c2cc3c(cn2)[nH]c2ncc(-c4ccc(OCCn5ccnc5)cc4)cc23)c1` [Example 150, 3-{4-[2-(1H-imidazol-1-yl)ethoxy]phenyl}-6-(pyrid-3-yl)-9H-pyrrolo[2,3-b:5,4-c′]-dipyridine]: the pIC50 at Pim-1 was 7.00 to 9.00; at Pim-2 it was 6.00 to 7.00; on Pim-3 it was 7.00 to 9.00.

On to `Oc1ccc(-c2cnc3[nH]c4cnc(-c5cccnc5)cc4c3c2)cc1` [Example 151, 4-[6-(pyrid-3-yl)-9H-pyrrolo[2,3-b:5,4-c′]dipyrid-3-yl]phenol], for which the pIC50 at Pim-1 is 7.00 to 9.00; at Pim-2 it was 6.00 to 7.00; at Pim-3, 7.00 to 9.00.

As for `CS(=O)(=O)N1CCN(CCCOc2ccc(-c3cnc4[nH]c5cnc(-c6cccnc6)cc5c4c3)cc2)CC1` [Example 152, 3-(4-{3-[4-(methylsulfonyl)piperazin-1-yl]propoxy}phenyl)-6-(pyrid-3-yl)-9H-pyrrolo-[2,3-b:5,4-c′]dipyridine], the pIC50 at Pim-1 was 7.00 to 9.00; at Pim-2 it was 6.00 to 7.00; on Pim-3, 7.00 to 9.00.

Regarding `CCN(CC)CCOc1cccc(-c2cnc3[nH]c4cnc(-c5cccnc5)cc4c3c2)c1` [Example 153, N,N-diethyl-2-{3-[6-(pyrid-3-yl)-9H-pyrrolo[2,3-b:5,4-c′]dipyrid-3-yl]phenoxy}ethan-amine], the pIC50 at Pim-1 is 7.00 to 9.00; on Pim-2, 5.30 to 6.00; at Pim-3, 7.00 to 9.00.

With `NCCCOc1ccc(-c2cnc3[nH]c4cnc(-c5cccnc5)cc4c3c2)cc1` [Example 155, 3-{4-[6-(pyrid-3-yl)-9H-pyrrolo[2,3-b:5,4-c′]dipyrid-3-yl]-phenoxy}propan-1-amine], the results for the negative-log IC50 (pIC50) on Pim-1, on Pim-2 and at Pim-3 were 7.00 to 9.00, 6.00 to 7.00 and 7.00 to 9.00, respectively.

With `Cc1cc(N2CCN(C(=O)OC(C)(C)C)CC2)ncc1-c1cnc2[nH]c3cnc(-c4cccnc4)cc3c2c1` [Example 156, 2-methyl-2-propyl 4-{4-methyl-5-[6-(pyrid-3-yl)-9H-pyrrolo[2,3-b:5,4-c′]dipyrid-3-yl]-pyrid-2-yl}piperazine-1-carboxylate], the negative-log IC50 (pIC50) at Pim-1 was 7.00 to 9.00; on Pim-2, less than 5.30; on Pim-3, 6.00 to 7.00.

The pIC50 is the IC50 on a negative log10 scale, so that one unit is a factor of ten.

Source of the values: patent US20110178053A1, “AZACARBOLINE DERIVATIVES, PREPARATION METHOD THEREOF AND THERAPEUTIC USE OF SAME” (SANOFI-AVENTIS, priority 2008, published 2011).
